Like-named read-outs stand apart in the source and are kept apart here.
Tests used:
Assay type in all cases: cell-based
SW1990 cells = test: Cell count / cell proliferation assay in SW1990 cells; conditions: for effect on SW1990 cell numbers / proliferation: in words; for IC50: cells counted after 48 hours incubation, normalized to controls, read-out: Estimated IC50 values, SW1990
Procedure: FIG. 3 depicts the result of cell count assays after two days of incubation with an exemplary compound, Ac4Glc2Bz. The cells treated with the compound are, respectively, SW1990 and PANC-1, which are pancreatic cancer cell lines. Meanwhile, control samples were treated with solvent vehicle of 2.5 μL DMSO per 1 mL of medium.
(§1) FIGS. 5A and 5B show the results of cell toxicity experiments that were conducted on SW1990 and PANC-1 cells with the analogs indicated. Cells were counted after incubation with each analog for 48 hours. Cell counts were then normalized to controls, data was log transformed, and IC50 values were calculated. […]
(§2) Cells were incubated at a range of concentrations of the UAP inhibitors (typically at 0, 10, 25, 50, 100, and 150 μM) and the number of cells were quantified, typically by automated counting (e.g., with a Coulter Counter Z2 instrument) after 1, 2, 3, or 5 days of exposure.

PANC-1 cells = test: Cell count / cell proliferation assay in PANC-1 cells; conditions: for effect on PANC-1 cell numbers / proliferation: in words; for IC50: cells counted after 48 hours incubation, normalized to controls, read-out: Estimated IC50 values, PANC-1
Procedure: as §1, §2

[1] = tested on: primary human adipose stem cells (hASCs); test: Cell count assay in control cells (human ASCs); conditions: Homo sapiens, 48 h; two days of exposure; 300 is the highest concentration tested
Description: FIG. 4A and FIG. 4B depict histogram results of cell count assays after two days of exposure to each analog in cancer cell lines (SW1990 and PANC-1) and in control cells (human ASCs). […] In all cases, IC50 values were greater than 300 which is the highest concentration tested, for the ACSs, while the Ac4Glc2Bz analogs and Ac4Gal2Bz analogs were effective to reduce cell numbers in both cancer cell lines.

IC50 [1] [µM] | SMILES | effect on SW1990 cell numbers / proliferation (SW1990 cells) | effect on PANC-1 cell numbers / proliferation (PANC-1 cells) | IC50 (SW1990 cells) [µM] | IC50 (PANC-1 cells) [µM] | IC50 (SW1990 cells; Homo sapiens, SW1990) [µM] | IC50 (PANC-1 cells; Homo sapiens, PANC-1) [µM]
– | CC(=O)OC1OC(CO)C(OC(C)=O)C(OC(C)=O)C1NC(=O)c1ccccc1 (stereo not shown) [1,3,4-O-Ac3Glc2Bz] | consistently reduced cell numbers | consistently reduced cell numbers | – | – | – | –
– | CC(=O)OCC1OC(O)[C@@H](NC(=O)c2ccccc2)[C@@H](OC(C)=O)[C@@H]1OC(C)=O (stereo partly shown) [3,4,6-O—Ac3Glc2Bz] | remarkable inhibition | – | 37.1 ± 1.8 | 76.1 ± 1.6 | – | –
> 300 | CC(=O)OCC1OC(OC(C)=O)[C@@H](NC(=O)c2ccccc2)[C@@H](OC(C)=O)[C@H]1OC(C)=O (stereo partly shown) [Ac4Gal2Bz] | remarkable inhibition | – | – | – | 39.1 ± 2.2 | 107 ± 1.1
– | CC(=O)OC[C@H]1OC(OC(C)=O)[C@H](NC(=O)c2ccccc2O)[C@@H](OC(C)=O)[C@@H]1OC(C)=O (stereo partly shown) [Ac4Glc2NBz-2-OH] | consistently reduced cell numbers | consistently reduced cell numbers | 140.3 ± 1.4 | 49.9 ± 1.3 | – | –
– | CC(=O)OCC1OC(OC(C)=O)[C@@H](NC(=O)C2CCCCC2)[C@@H](OC(C)=O)[C@H]1OC(C)=O (stereo partly shown) [Ac4GlcNCyx] | – | – | – | – | 160.9 ± 1.4 | 84.1 ± 1.5
– | CC(=O)OCC1OC(OC(C)=O)[C@H](NC(=O)c2ccccc2)[C@@H](OC(C)=O)[C@H]1OC(C)=O (stereo partly shown) [Ac4Man2Bz] | substantially low effect | substantially low effect | – | – | 148 ± 1.5 | 100 ± 1.8

From US11827663B2, “Use of UAP inhibitors to inhibit flux through the hexosamine biosynthetic pathway” (The Johns Hopkins University, priority 2014, dated 2023)
